Data taken from patent US20240238310A1, “MODULATION OF SEX STEROID HORMONE PRODUCTION AND ACTIVITY FOR TREATING AND PREVENTING HERNIAS” (Northwestern University, priority 2020, published 2024).

Tested on: Arom^hum mice
Assay: Prevention of inguinal hernia, LAMT fibrosis and atrophy in Arom^hum mice (treatment started before hernia formation)
Type: in vivo, mouse
Conditions: Arom^hum mice
From the text: Increased LAMT estrogen levels are associated with LAMT fibrosis, myocyte atrophy, and inguinal hernia development; aromatase inhibitor prevents hernia formation in Arom^hum mice. […] None of the WT littermates (n=32) developed hernia.
In the mouse, the scrotum is connected to the peritoneal cavity with a narrow funicular (or inguinal) canal, whose walls are composed of LAMT. Structurally normal LAMT is essential to maintain the tone of this canal and prevents herniation of bowel. LAMT is the critical site affected by E2 excess (FIGS. 2, 5, 6). As in many other tissues, stromal cells intimately interact with parenchymal cells (myocytes) in UAMT and LAMT (FIG. 6). […] Administration of the aromatase inhibitor letrozole started at 3 weeks of age for 12 weeks prevented LAMT atrophy, fibrosis and herniation in all (10 out of 10) treated Arom^hum mice (FIG. 6B).
Experiment 1a1: Does aromatase inhibition arrest or reverse LAMT fibrosis, atrophy, and hernia in male Arom^hum mice? […] The hernias will be classified as mild, early moderate, late moderate and severe if the bulging area through muscle tissue is <100 mm^2 (˜4 weeks), 100-150 mm^2 (˜6 weeks), 150-200 mm^2 (˜8 weeks), or >200 mm^2 (˜10 weeks), respectively. First, we will treat Arom^hum mice showing mild hernias with letrozole (SC 10 μg/day release pellet) or vehicle starting at 4 weeks of age for 12 weeks^63. We will assess whether muscle fibrosis, atrophy, and hernia can be arrested or reversed in mildly (<100 mm^2) affected animals. If early letrozole treatment can arrest mild muscle fibrosis, we will delay the initiation of treatment to 6, 8, or 10 weeks of age to determine whether letrozole can arrest or reverse the growth of the early moderate (6 weeks), late moderate (8 weeks) or severe hernia (10 weeks). Hernia development will be monitored by visual inspection twice a week for 12 weeks after letrozole administration and will be reported as hernia incidence using Kaplan-Meier curve analysis. The length and width of the observed hernias will be measured to calculate the surface area (length×width). After completion of the treatment, the mice will be dissected, and LAMT, UAMT (control), and serum will be collected. One hundred mg of frozen muscle tissue will be obtained to measure tissue estrogen levels. Circulating and tissue (LAMT and UAMT) E2 levels will be measured at the IIT Research Institute by Dr. Miguel Muzzio (see letter) using LC-MS^2. We will use immunoblotting and IHC to determine ERα expression in LAMT and UAMT.
This finding was published in PNAS in Oct., 2018. […] We treated Arom^hum mice with fulvestrant for 12 weeks starting at the age of 4 weeks (before hernia formation). As expected, placebo-treated Arom^hum mice developed scrotal hernias.

C[C@]12CC[C@@H]3c4ccc(O)cc4C[C@@H](CCCCCCCCC[S+]([O-])CCCC(F)(F)C(F)(F)F)[C@H]3[C@@H]1CC[C@@H]2O (stereo partly drawn) [fulvestrant]
development of LAMT fibrosis (fibrotic area, Masson's trichrome) (4-week-old mice treated for 12 weeks, FIGS. 15C and D): rescues lower abdominal muscle tissue (LAMT) fibrosis and myocyte atrophy | myofiber atrophy (myofiber cross-sectional area) (4-week-old mice treated for 12 weeks, FIGS. 15C and E): completely prevented myofiber atrophy | hernia formation (fulvestrant for 12 weeks starting at the age of 4 weeks (before hernia formation)): completely prevented by fulvestrant administration
